Measurements from patent US20260242402A1, “PRODRUGS OF STAT3 INHIBITORS” (Tvardi Operating Company, Inc., priority 2022, published 2026).
Values after ≈ are worked out from the molar mass of the structure shown. Counter-ions that a name gives are not always drawn. Like-named read-outs stand apart in the source and are kept apart here.

Tests used:
in vitro = conditions: human, plasma
physchem [1] = conditions: buffer, pH 7.4
[2] = male, SD, rat, in vivo, po
[3] = male, cynomolgus monkey, in vivo, po
physchem [4] = conditions: thermodynamic from solid
[5] = not given; remark: listed apart in the source
[6] = Solubility of TTI-101 as described in the text; format: physicochemical; conditions: aqueous solutions
in vivo = conditions: rat
[7] = Pharmacokinetics in monkeys (TTI-101 in plasma by LC-MS/MS); conditions: male, cynomolgus monkey, iv, 26 mg/kg
[8] = pH 2, aqueous buffer, Solubility (pH = 2.0)

Which “Aqueous Stability (pH = 2.0)” value (phosphate buffer pH 2.0, 37° C., up to 1440 minutes) does the source give for `CNCCCN(C)C(=O)Oc1c(-c2c(O)ccc3ccccc23)cc(NS(=O)(=O)c2ccc(OC)cc2)c2ccccc12` [Compound 4, 2-hydroxy-4′-((4-methoxyphenyl)sulfonamido)-[1,2′-binaphthalen]-1′-yl methyl(3-(methylamino)propyl)carbamate hydrochloride] here?
The value was “Stable”.

What about the “Aqueous Stability (pH = 3.5)” value (phosphate buffer pH 3.5, 37° C., up to 1440 minutes) of the same molecule?
Its value is “Stable”.

What about the “Aqueous Stability (pH = 7.4) (in words)” value (phosphate buffer pH 7.4, 37° C., up to 1440 minutes) of the same molecule?
Its value is “Unstable;”.

What about the half-life at 2 µM (in vitro) of the same molecule?
The half-life at 2 µM was 4.3 min.

What about the half-life at 2 µM (physchem [1]) of the same molecule?
The half-life at 2 µM was 1 h.

Which “Aqueous Stability (pH = 2.0)” value (pH 2) does the source give for `COc1ccc(S(=O)(=O)Nc2cc(-c3c(O)ccc4ccccc34)c(OP(=O)(O)O)c3ccccc23)cc1` [Compound 9, 2-hydroxy-4′-((4-methoxyphenyl)sulfonamido)-[1,2′-binaphthalen]-1′-yl dihydrogen phosphate] here?
The value was “Stable”.

And the “Aqueous Stability (pH = 3.5)” value (pH 3.5)?
Its value is “Stable”.

And the “Aqueous Stability (pH = 7.4) (in words)” value (pH 7.4)?
Its value is “Stable”.

And the “F % (bioavailability, calculated on dose levels)” value [2]?
Its value is 58.5%.

And the T1/2 [2]?
Its T1/2 is 2.0 ± 0.4 h.

And the Tmax [2]?
The Tmax was 1.8 ± 1.7 h.

And the AUClast ([2]; 22.4 mg/kg)?
The AUClast was 37775 ± 14217 ng·h/mL.

And the “F % (bioavailability, calculated on dose levels)” value [3]?
Its value is 81.3%.

What about the T1/2 [3] of the same molecule?
The T1/2 was 6.7 ± 1.4 h.

And the Tmax [3]?
Its Tmax is 1.7 ± 0.6 h.

What about the AUClast ([3]; 24.3 mg/kg) of the same molecule?
Its AUClast is 75704 ± 14050 ng·h/mL.

And the solubility (physchem [4]; [8])?
Its solubility is 1530 µg/mL.

What about the solubility (physchem [4]; pH 7.4, aqueous buffer, Solubility (pH = 7.4)) of the same molecule?
The solubility was 6160 µg/mL.

For `COc1ccc(S(=O)(=O)Nc2cc3c(c4ccccc24)OP(=O)(O)Oc2ccc4ccccc4c2-3)cc1` [Compound 9A, N-((6)-6-hydroxy-6-oxidodinaphtho[1,2-d:1′,2′-f][1,3,2]dioxaphosphepin-15-yl)-4-methoxybenzenesulfonamide], which “Solubility (pH = 7.4)” value [5] is on record?
The value was 37, 12 ug/mL.

And the “Aqueous Stability (pH = 2.0)” value (pH 2)?
The value was “Stable”.

What about the “Aqueous Stability (pH = 3.5)” value (pH 3.5) of the same molecule?
The value was “Stable”.

And the “Aqueous Stability (pH = 7.4) (in words)” value (pH 7.4)?
The value was “Stable”.

What about the “F % (bioavailability, calculated on dose levels)” value [3] of the same molecule?
Its value is 6.7%.

What about the Tmax [3] of the same molecule?
The Tmax was 8.0 ± 0 h.

And the AUClast ([3]; 53.5 mg/kg)?
The AUClast was 5203 + 1048 ng*h/mL.

And the solubility (physchem [4]; [8])?
Its solubility is 56 µg/mL (≈ 105 µM).

With `COc1ccc(S(=O)(=O)Nc2cc(-c3c(O)ccc4ccccc34)c(O)c3ccccc23)cc1` [TTI-101, N-(1′,2-dihydroxy-[1,2′-binaphthalen]-4′-yl)-4-methoxybenzenesulfonamide] as the molecule, how does the “Solubility (in words)” value [6] read?
Its value is “insoluble in aqueous solutions”.

What about the AUC(0-t) (in vivo; male, SD, iv, 21.5 mg/kg) of the same molecule?
The AUC(0-t) was 72400 ± 15100 ng·h/mL.

What about the half-life (in vivo; male, SD, iv, 21.5 mg/kg) of the same molecule?
The half-life was 2.8 ± 0.6 h.

What about the bioavailability (in vivo; po) of the same molecule?
The bioavailability was 40.4%.

And the AUC(0-t) [7]?
Its AUC(0-t) is 116000 ± 7170 ng·h/mL.

And the half-life [7]?
Its half-life is 2.4 ± 0.1 h.
